In article PMC10287566, “Signaling-specific inhibition of the CB1 receptor for cannabis use disorder: phase 1 and phase 2a randomized trials” (Nature Medicine, 2023):

System: healthy volunteers
Experiment: Phase 1 single-ascending-dose (SAD) study, safety
Procedure: Four single oral dose levels (0.2, 0.6, 2 and 6 mg) were given in the morning on day 1 in the SAD study, and three oral doses (0.6, 2 and 6 mg) were given in the morning of day 1 to day 7 in the MAD study, to independent dose cohorts. […] Each dose cohort comprised eight volunteers (six (5/1) active and two (1/1) placebo per dose level).
During the rest of the study, only volunteers with pathological values were excluded.
Participants were admitted to the research clinic at midday before dosing (day −1). In the SAD study, they remained in-house until day 8 for PK and PD samples and safety assessments. In the MAD study, participants remained in-house until day 14 and returned to the research facility on an outpatient basis to have PK and safety assessments at 216 h and 264 h (day 16 and day 18) after their last dose (day 7). Safety monitoring (physical examinations, vital sign measurements, 12-lead ECGs, clinical safety laboratory tests and AE monitoring) were performed throughout the studies. Psychometrics tests (Bond & Lader VAS, Addiction Research Center Inventory (49-item short form) (ARCI-49) and Profile of Mood States 65 self-report items (POMS-65)) and the Columbia-Suicide Severity Rating Scale (C-SSRS) test were performed at baseline, before dose and at 4 h and 24 h after dose on day 1 and day 7 (MAD study, only) and C-SSRS only at 24 h.
All participants who had AEs, whether considered associated with the use of the investigational product or not, were monitored for as long as needed to determine resolution.

## COc1ccc(CO[C@H]2CC[C@@]3(C)C(=CC[C@H]4[C@@H]5CC[C@H](C(C)=O)[C@@]5(C)CC[C@@H]43)C2)cc1 [AEF0117, 3β-(4-methoxybenzyloxy)pregn-5-en-20-one]
Single 0.2 mg
  Number of TEAEs: 4 E
  Number of participants with a TEAE leading to discontinuation: 0 n (%)
  Number of participants with an SAE: 0 n (%)
  Number of participants with at least one TEAE: 2 (33.3) n (%)
  Participants with TEAE: Mild: 2 (33.3) n (%)
  Participants with TEAE: Moderate: 1 (16.7) n (%)
  Participants with TEAE: Not related: 1 (16.7) n (%)
  Participants with TEAE: Severe: 0 n (%)
  TEAEs by SOC: Gastrointestinal disorders: 2 (33.3) n (%)
  TEAEs by SOC: Investigations: 0 n (%)
  TEAEs by SOC: Nervous system disorders: 1 (16.7) n (%)
Single 0.6 mg
  Number of TEAEs: 0 E
  Number of participants with a TEAE leading to discontinuation: 0 n (%)
  Number of participants with an SAE: 0 n (%)
  Number of participants with at least one TEAE: 0 n (%)
  Participants with TEAE: Mild: 0 n (%)
  Participants with TEAE: Moderate: 0 n (%)
  Participants with TEAE: Not related: 0 n (%)
  Participants with TEAE: Related: 0 n (%)
  Participants with TEAE: Severe: 0 n (%)
  TEAEs by SOC: Gastrointestinal disorders: 0 n (%)
  TEAEs by SOC: Investigations: 0 n (%)
  TEAEs by SOC: Nervous system disorders: 0 n (%)
Single 2 mg
  Number of TEAEs: 2 E
  Number of participants with a TEAE leading to discontinuation: 0 n (%)
  Number of participants with an SAE: 0 n (%)
  Number of participants with at least one TEAE: 1 (8.3) n (%)
  Participants with TEAE: Mild: 1 (8.3) n (%)
  Participants with TEAE: Moderate: 0 n (%)
  Participants with TEAE: Not related: 0 n (%)
  Participants with TEAE: Severe: 0 n (%)
  TEAEs by SOC: Gastrointestinal disorders: 0 n (%)
  TEAEs by SOC: Investigations: 1 (8.3) n (%)
  TEAEs by SOC: Nervous system disorders: 0 n (%)
Single 6 mg
  Number of TEAEs: 0 E
  Number of participants with a TEAE leading to discontinuation: 0 n (%)
  Number of participants with an SAE: 0 n (%)
  Number of participants with at least one TEAE: 0 n (%)
  Participants with TEAE: Mild: 0 n (%)
  Participants with TEAE: Moderate: 0 n (%)
  Participants with TEAE: Not related: 0 n (%)
  Participants with TEAE: Related: 0 n (%)
  Participants with TEAE: Severe: 0 n (%)
  TEAEs by SOC: Gastrointestinal disorders: 0 n (%)
  TEAEs by SOC: Investigations: 0 n (%)
  TEAEs by SOC: Nervous system disorders: 0 n (%)
